# Activity calls are given as the source filed them.
# How the values were obtained:
# [1] = system: Streptococcus sp. 'group A'; test: Streptococcus pyogenes SK(-)GAS viability under kanamycin – luminescence, BacTiterGlo, confirmation, counter-screen for streptokinase expression inhibitor project, dose response (AID 1900); assay type: functional, organism-based
# Streptokinase A = molecular target: T1, Streptokinase A (Streptococcus pyogenes serotype M1, UniProt P10520); test: viability-normalized secreted streptokinase activity reduction – plasminogen activation absorbance, OD405, dose response (AID 1914); assay type: functional, Streptococcus pyogenes M1 GAS;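 note: secreted streptokinase activity via plasminogen activation per viability signal from cell pellet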
# T1 sequence (P10520 whole entry): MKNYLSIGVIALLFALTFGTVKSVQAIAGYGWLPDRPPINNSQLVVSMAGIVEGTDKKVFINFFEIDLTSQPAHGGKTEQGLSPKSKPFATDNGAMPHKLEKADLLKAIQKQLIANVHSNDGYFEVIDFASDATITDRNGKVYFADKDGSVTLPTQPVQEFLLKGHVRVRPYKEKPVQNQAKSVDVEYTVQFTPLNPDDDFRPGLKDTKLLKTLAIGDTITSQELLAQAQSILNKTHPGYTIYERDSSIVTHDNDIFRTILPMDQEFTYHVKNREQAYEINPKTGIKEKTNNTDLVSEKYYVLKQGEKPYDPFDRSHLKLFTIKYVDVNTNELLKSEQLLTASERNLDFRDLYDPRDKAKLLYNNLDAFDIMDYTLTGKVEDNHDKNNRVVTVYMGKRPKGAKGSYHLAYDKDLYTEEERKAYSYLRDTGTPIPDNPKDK
# [2] = molecular target: FAD-linked sulfhydryl oxidase ALR (Homo sapiens, UniProt P55789); test: ALR-catalysed DTT oxidation blockers – biochemical, H2O2 detection, luminescence, cherry-pick, dose response (AID 493248)
# Streptococcus = test: GAS UMAA2166 growth inhibition – luminescence, BacTiterGlo, counter-screen for streptokinase expression inhibitor project, dose response (AID 1915); assay type: functional, organism-based;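 note: potency for reduction of bacterial viability or growth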
# [3] = molecular target: T2, High affinity choline transporter 1 (Homo sapiens, UniProt Q9GZV3); test: human choline transporter blockers, potency – cell-based, 10-point CRC, membrane potential dye, dose response (AID 588401); assay type: functional;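 note: membrane potential dye fluorescence of choline-evoked depolarization via CHT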
# T2 sequence (Q9GZV3 whole entry): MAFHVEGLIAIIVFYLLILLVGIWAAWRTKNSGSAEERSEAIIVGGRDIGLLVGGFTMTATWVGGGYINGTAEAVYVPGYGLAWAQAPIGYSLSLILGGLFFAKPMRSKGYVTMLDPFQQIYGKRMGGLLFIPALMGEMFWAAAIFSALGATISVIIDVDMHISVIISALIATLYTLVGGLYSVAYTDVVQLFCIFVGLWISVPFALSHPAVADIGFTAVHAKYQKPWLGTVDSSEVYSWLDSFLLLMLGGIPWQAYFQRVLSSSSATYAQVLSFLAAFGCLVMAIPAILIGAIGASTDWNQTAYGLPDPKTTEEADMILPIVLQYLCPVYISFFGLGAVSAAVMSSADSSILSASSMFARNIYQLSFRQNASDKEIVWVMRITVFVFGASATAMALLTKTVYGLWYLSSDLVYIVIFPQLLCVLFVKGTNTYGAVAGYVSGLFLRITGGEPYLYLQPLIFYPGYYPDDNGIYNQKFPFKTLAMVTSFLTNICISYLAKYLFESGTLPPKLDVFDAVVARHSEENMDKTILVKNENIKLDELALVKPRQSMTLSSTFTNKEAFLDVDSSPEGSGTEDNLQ
# [4] = molecular target: T2, High affinity choline transporter 1; test: human choline transporter blockers, potency – cell-based, 5-point CRC, membrane potential dye, dose response (AID 504840); assay type: functional
# H9c2 = test: cells; assay type: functional, cell-based; settings: Rattus norvegicus, H9c2, Myocardium;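 note: confirmatory concentration-response retest of ultra-high-throughput screening hits for modulation of myocardial damage; cell death induced by hydrogen peroxide oxidative stress; compound pretreatment for 60 min then peroxide exposure for 2 h; potency is for protecting the cells against peroxide damage rather than for killing them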
# [5] = molecular target: Potassium voltage-gated channel subfamily KQT member 2 (Rattus norvegicus, UniProt O88943); test: blockers of KCNQ2 channel current – cell-based, automated electrophysiology, set II, rat KCNQ2, dose response (AID 588637); assay type: functional
# [6] = molecular target: Adenosylmethionine-8-amino-7-oxononanoate aminotransferase (Mycobacterium tuberculosis, UniProt P9WQ81); test: Mycobacterium tuberculosis BioA enzyme inhibitor Measured in Biochemical System Using Plate Reader - 2163-02_Inhibitor_Dose_CherryPick_Activity.; assay type: functional, Mycobacterium tuberculosis UT205
# Orexin receptor type 2 [7] = molecular target: T3, Orexin receptor type 2 (Homo sapiens, UniProt O43614); test: Counterscreen assay for antagonists of the orexin 1 receptor (OX1R; HCRTR1): Homogeneous Time Resolved Fluorescence (HTRF)-based cell-based dose response assay for antagonists of the orexin 2 receptor (OX2R; HCRTR2), run by assay provider.; assay type: functional
# T3 sequence (O43614 whole entry): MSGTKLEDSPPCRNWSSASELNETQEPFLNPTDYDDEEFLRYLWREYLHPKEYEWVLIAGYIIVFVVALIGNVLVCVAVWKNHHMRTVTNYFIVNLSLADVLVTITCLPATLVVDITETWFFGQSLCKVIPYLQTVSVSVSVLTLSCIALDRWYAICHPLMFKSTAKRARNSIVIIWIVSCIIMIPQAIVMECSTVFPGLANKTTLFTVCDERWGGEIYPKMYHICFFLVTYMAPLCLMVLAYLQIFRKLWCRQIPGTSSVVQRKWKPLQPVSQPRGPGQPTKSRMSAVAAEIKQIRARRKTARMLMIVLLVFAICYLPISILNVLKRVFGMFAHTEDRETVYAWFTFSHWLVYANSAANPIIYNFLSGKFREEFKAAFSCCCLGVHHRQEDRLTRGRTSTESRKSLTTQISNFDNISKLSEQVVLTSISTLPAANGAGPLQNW
# Orexin receptor type 2 [8] = molecular target: T3, Orexin receptor type 2; test: Counterscreen assay for antagonists of the orexin 1 receptor (OX1R; HCRTR1): Fluorescence-based cell-based dose response assay for antagonists of the orexin 2 receptor (OX2R; HCRTR2), run by assay provider.; assay type: functional
# [9] = molecular target: T4, Orexin/Hypocretin receptor type 1 (Homo sapiens, UniProt O43613); test: (§1) Fluorescence-based cell-based high throughput dose response assay for antagonists of the orexin 1 receptor (OX1R; HCRTR1). [Related pubchem assays (depositor defined):AID434989, AID435008, AID463079, AID485270, AID492963, AID492964, AID492965, AID493232, AID504717, AID504718]; assay type: functional
# T4 sequence (O43613 whole entry): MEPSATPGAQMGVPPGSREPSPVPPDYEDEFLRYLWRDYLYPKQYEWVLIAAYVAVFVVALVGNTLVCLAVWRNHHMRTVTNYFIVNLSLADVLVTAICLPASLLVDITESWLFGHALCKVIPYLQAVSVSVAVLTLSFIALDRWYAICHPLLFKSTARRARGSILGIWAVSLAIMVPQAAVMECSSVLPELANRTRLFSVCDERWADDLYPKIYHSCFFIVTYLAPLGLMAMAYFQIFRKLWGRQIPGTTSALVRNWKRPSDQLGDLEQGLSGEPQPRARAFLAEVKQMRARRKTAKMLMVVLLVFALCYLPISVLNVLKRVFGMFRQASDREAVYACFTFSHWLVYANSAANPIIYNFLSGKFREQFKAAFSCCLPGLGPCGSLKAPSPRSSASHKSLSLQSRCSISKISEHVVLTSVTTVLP
# [10] = viability of uninfected HEp-2 cells – cell-based, HTS, cytotoxicity control for RSV inhibitor project, dose response (AID 2410); assay type: functional; settings: human respiratory syncytial virus
# [11] = (§2) Counterscreen for antagonists of the orexin 1 receptor (OX1R; HCRTR1): Fluorescence-based cell-based high throughput dose response assay to identify antagonists of the parental CHO cell line. [Related pubchem assays (depositor defined):AID434989, AID435008, AID463079, AID485270, AID492963, AID492964, AID492965, AID493232, AID504699, AID504701]; assay type: functional
# CHO-K1 = test: as §2, with “Homogeneous time resolved fluorescence (HTRF)-based” for “Fluorescence-based”, “cell-based” for “cell-based high throughput”, “CHO-K1” for “CHO”; assay type: functional; settings: Cricetulus griseus;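 note: potency for inhibition of ATP-stimulated IP1 production as antagonists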
# [12] = molecular target: T4, Orexin/Hypocretin receptor type 1; test: as §1, with “Homogeneous Time Resolved Fluorescence (HTRF)-based” for “Fluorescence-based”; assay type: functional
# [13] = reduction of Shn3 3'UTR-driven luciferase in osteoblasts – cell-based, Clone20 osteoblasts, firefly luciferase, cherry-picked, dose response (AID 624132); assay type: functional;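 note: firefly luciferase luminescence from reporter carrying the Shn3 3'UTR in osteoblasts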
# [14] = non-specific 3'UTR reporter inhibition in Clone20-Shn3RL – cell-based, Renilla luciferase, cherry-picked, counter-screen for Shn3 inhibitor project, dose response (AID 624133); assay type: functional
# Protein Wnt-3a = Protein Wnt-3a (Mus musculus, UniProt P27467); test: antagonism of Wnt3a pathway luciferase reporter – Wnt-LIGHT cells, luminescence, selectivity assay for Gli-SUFU antagonist project, dose response (AID 651570); assay type: functional; settings: read-out: IC50_Mean;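 note: Wnt-LIGHT reporter cells stimulated with conditioned medium from Wnt3a-producing cells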
# [15] = loss of viability in HepG2 cells – cell-based, CellTiter-Glo, cherry-picked, cytotoxicity control for Shn3 inhibitor project, dose response (AID 624134); assay type: functional
# [16] = molecular target: T5, Apoptotic protease-activating factor 1 (Homo sapiens, UniProt O14727); test: SAR analysis of small molecule Activators of Apaf-1 in a Fluorescent assay.; assay type: functional; settings: read-out: EC50_Mean;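 note: caspase-3 cleavage of fluorogenic Rh110 DEVD substrate downstream of apoptosome activation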
# T5 sequence (O14727 whole entry): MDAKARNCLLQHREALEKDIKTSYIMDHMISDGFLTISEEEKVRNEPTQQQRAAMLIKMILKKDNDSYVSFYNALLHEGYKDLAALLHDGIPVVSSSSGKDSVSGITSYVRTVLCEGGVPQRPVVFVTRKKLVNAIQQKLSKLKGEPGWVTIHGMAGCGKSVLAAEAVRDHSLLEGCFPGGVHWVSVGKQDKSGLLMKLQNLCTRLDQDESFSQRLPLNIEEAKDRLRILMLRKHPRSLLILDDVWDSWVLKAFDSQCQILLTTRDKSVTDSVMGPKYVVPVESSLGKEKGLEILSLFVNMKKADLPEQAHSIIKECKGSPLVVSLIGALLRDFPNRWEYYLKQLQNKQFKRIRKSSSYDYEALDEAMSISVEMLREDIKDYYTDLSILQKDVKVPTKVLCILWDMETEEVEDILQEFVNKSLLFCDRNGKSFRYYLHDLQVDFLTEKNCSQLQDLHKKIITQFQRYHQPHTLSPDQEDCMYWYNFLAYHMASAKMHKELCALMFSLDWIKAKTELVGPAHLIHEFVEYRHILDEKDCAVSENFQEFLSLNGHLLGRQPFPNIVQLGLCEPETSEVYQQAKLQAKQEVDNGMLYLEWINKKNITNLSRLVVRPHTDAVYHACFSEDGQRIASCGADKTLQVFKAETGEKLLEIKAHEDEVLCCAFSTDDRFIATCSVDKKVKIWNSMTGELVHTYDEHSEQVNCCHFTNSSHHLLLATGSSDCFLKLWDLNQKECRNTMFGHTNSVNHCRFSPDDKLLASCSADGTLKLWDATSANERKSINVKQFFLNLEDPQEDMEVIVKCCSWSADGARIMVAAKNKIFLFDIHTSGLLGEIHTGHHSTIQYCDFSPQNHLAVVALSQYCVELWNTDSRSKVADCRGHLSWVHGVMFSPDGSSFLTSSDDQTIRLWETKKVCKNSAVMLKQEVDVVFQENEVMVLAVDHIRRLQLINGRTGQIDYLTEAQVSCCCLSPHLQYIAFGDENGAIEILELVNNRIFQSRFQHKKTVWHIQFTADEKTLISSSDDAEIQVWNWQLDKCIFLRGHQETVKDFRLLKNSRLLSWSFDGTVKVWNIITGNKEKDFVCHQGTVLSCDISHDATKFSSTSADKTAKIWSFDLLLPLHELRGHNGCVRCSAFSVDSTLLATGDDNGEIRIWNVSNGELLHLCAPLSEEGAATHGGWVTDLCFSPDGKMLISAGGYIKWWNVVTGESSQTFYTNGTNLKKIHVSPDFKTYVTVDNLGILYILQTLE
# Sequence of Potassium voltage-gated channel subfamily KQT member 2 (O88943 whole entry): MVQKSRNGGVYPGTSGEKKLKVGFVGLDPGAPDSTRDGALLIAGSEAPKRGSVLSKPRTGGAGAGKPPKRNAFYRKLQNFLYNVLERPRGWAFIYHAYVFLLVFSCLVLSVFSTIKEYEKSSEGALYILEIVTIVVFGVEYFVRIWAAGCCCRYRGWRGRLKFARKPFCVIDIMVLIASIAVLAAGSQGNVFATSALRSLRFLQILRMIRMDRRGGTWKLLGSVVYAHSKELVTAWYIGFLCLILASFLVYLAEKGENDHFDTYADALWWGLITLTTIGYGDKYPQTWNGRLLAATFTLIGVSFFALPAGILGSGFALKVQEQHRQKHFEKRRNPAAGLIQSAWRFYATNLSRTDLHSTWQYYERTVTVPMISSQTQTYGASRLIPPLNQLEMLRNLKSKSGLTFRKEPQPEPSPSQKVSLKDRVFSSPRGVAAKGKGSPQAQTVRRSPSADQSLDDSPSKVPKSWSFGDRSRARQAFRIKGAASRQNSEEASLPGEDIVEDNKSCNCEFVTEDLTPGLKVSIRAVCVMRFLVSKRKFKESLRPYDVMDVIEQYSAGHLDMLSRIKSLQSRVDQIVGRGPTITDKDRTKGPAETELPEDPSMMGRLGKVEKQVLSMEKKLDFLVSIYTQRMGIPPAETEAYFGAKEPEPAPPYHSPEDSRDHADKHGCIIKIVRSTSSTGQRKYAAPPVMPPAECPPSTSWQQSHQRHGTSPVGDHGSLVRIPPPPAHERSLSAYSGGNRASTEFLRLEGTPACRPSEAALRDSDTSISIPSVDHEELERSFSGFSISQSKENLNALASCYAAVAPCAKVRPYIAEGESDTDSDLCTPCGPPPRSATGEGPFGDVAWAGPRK
# Sequence of Protein Wnt-3a (P27467 whole entry): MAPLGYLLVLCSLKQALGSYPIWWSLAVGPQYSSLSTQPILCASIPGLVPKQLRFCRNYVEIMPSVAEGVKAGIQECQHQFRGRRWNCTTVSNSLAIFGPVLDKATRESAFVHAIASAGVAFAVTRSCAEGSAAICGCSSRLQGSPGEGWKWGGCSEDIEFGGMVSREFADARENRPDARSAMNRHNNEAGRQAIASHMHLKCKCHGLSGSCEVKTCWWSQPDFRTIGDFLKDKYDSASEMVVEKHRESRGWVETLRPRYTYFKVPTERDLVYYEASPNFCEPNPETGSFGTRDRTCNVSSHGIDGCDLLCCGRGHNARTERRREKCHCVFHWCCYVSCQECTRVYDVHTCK
# Sequence of FAD-linked sulfhydryl oxidase ALR (P55789 whole entry): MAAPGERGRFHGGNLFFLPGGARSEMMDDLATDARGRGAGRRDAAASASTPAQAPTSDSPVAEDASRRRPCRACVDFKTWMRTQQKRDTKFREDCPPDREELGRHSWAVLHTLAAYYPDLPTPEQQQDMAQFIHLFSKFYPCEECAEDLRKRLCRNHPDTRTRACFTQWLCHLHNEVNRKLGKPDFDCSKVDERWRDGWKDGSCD
# Sequence of Adenosylmethionine-8-amino-7-oxononanoate aminotransferase (P9WQ81 whole entry): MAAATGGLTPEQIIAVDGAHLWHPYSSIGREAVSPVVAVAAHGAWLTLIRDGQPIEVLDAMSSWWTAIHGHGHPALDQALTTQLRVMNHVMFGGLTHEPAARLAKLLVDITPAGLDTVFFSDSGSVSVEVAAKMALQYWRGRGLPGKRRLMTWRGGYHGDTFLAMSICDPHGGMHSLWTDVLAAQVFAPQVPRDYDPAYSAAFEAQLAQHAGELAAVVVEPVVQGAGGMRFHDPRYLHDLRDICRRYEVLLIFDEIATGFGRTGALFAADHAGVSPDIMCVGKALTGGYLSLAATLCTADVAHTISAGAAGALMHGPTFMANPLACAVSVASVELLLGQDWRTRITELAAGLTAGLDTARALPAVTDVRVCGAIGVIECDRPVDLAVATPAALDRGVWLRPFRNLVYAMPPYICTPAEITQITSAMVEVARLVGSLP
compound,measurement,setting,value
N#C/C(=N\Nc1ccc(Cl)cc1)C(N)=S,EC50,[1],> 150 µM (not active)
same,EC50,Streptokinase A,> 150 µM (not active)
same,AC50,[2],7.86 µM (active)
same,EC50,Streptococcus,> 150 µM (not active)
same,IC50,[3],2.04 µM (active)
same,IC50,[4],5.01 µM (active)
CCC(CC)C(=O)N(CCc1ccc(OC)cc1)Cc1nc(O)c2ccccc2n1,IC50,H9c2,> 79 µM (inactive)
same,IC50,[5],12.4 µM (active)
Cc1c2cnn(CC(=O)NCc3ccccn3)c(=O)c2c(C)n1Cc1ccc(Cl)cc1,AC50,[6],2.49 µM (active)
O=C(NC(Cc1c[nH]c2ccccc12)C(=O)N/N=C/c1ccc(Cl)cc1)c1cccs1 (stereo unspecified),IC50,Orexin receptor type 2 [7],> 50 µM (inactive)
same,IC50,Orexin receptor type 2 [8],24 µM (inactive)
same,IC50,[9],8.68 µM (active)
same,IC50,cells,10.9 µM (active)
same,CC50,[10],14.7 µM (active)
same,IC50,[11],> 49.8 µM (inactive)
same,IC50,CHO-K1,> 66.2 µM (inactive)
same,IC50,[12],3.28 µM (active)
C[C@@H]1COC(=O)[C@@H](NC(=O)OCC2c3ccccc3-c3ccccc32)C/C=C\C[C@@H](CC(=O)N(CCO)Cc2ccccc2)C(=O)N1,AC50,[13],1.89 µM (active)
same,AC50,[14],3.59 µM (active)
same,IC50,Protein Wnt-3a,3.34 µM (active)
same,AC50,[15],> 70 µM (inactive)
CC(=O)c1ccc(N2C(=O)CC3(CC(c4ccc(Cl)cc4)=NO3)C2=O)cc1 (stereo unspecified),EC50,[16],> 100 µM (inactive)
Cc1ccc(C(C)N=C(S)NC2CCCCC2)cc1C (stereo unspecified),IC50,[3],3.36 µM (active)
same,IC50,[4],8 µM (active)
Cc1nn(-c2ccccc2)c2nc(N)c(C#N)c(-c3ccc(O)c(O)c3)c12,IC50,Orexin receptor type 2 [7],> 50 µM (inactive)
same,IC50,Orexin receptor type 2 [8],> 88.8 µM (inactive)
same,IC50,[9],> 5.53 µM (active)
same,CC50,[10],17.4 µM (active)
same,IC50,[11],36.2 µM (inactive)
same,IC50,CHO-K1,> 66.2 µM (inactive)
same,IC50,[12],9.34 µM (active)

# — ChEMBL document CHEMBL1201862, “PubChem BioAssay data set” (2004)
